{"source": "patent US8222247B2", "about": "“Modulators of glucocorticoid receptor, AP-1, and/or NF-kappabeta activity and use thereof” (Bristol-Myers Squibb Company, priority 2006, dated 2012)", "data": [{"molecular_target": "T1, human full-length glucocorticoid receptor (Homo sapiens, UniProt P04150)", "T1 construct": "recombinantly expressed human full-length glucocorticoid receptor; purchased PanVera Co., Madison, Wis; P2816", "T1 sequence (P04150 1-777)": "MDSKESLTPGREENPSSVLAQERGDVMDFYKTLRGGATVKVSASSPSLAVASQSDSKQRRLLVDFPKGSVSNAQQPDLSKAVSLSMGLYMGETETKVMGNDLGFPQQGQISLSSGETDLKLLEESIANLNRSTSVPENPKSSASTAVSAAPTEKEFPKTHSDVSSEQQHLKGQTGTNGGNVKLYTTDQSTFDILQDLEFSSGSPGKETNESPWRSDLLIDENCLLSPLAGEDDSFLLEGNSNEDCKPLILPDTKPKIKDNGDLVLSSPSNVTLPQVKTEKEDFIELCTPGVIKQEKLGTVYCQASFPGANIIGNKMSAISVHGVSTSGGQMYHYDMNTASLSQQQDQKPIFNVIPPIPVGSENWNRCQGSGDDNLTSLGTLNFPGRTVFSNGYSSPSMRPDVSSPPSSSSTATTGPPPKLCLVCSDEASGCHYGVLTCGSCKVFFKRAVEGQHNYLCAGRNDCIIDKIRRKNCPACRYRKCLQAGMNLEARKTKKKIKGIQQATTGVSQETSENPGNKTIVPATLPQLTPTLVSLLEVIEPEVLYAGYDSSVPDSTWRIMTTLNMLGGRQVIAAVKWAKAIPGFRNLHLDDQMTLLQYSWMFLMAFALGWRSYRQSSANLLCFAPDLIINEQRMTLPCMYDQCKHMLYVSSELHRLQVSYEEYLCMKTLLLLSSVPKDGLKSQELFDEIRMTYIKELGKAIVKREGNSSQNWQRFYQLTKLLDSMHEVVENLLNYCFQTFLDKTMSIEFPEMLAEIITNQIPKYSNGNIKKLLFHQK", "assay": "Glucocorticoid Receptor Binding Assay (II), fluorescence polarization competitor kit", "conditions": "1 h, % Relative Binding Affinity to dexamethasone, read-out: GR (% RBA* @ 10 μM) (GR Binding Assay (II)b)", "protocol": "Glucocorticoid Receptor Binding Assay (II)^b\nIn order to measure the binding of compounds on the glucocorticoid receptor a commercially available kit was used (Glucocorticoid receptor competitor assay kit, PanVera Co., Madison, Wis., P2816). Briefly, a cell lysate containing recombinantly expressed human full-length glucocorticoid receptor was mixed with a fluorescently labeled glucocorticoid (1 nM Fluormone GS1) in the presence or absence of test compound. After one hour at room temperature, the fluorescence polarization (FP) of the samples were measured. The FP of a mixture of receptor, fluorescent probe (i.e. Fluormone GS1) and 1 mM dexamethasone represented background fluorescence or 100% inhibition, whereas, the FP of the mixture without dexamethasone was taken to be 100% binding. The percentage inhibition of test molecules were then compared to the sample with 1 mM dexamethasone and expressed as % relative binding activity with dexamethasone being 100% and no inhibition is 0%. Test molecules were analyzed in the concentration range from 2.4 nM to 40 microMolar.", "units": {"percent relative binding activity vs dexamethasone at 10 µM": "%"}, "values": [{"molecule": "CC(C)(C(=O)Nc1nccs1)C(c1ccccc1)c1ccc(N2CCOCC2)nc1", "note": "(single isomer, unassigned) [Example 20, 2,2-Dimethyl-3-(6-(4-morpholinyl)-3-pyridinyl)-3-phenyl-N-1,3-thiazol-2-ylpropanamide]", "percent relative binding activity vs dexamethasone at 10 µM": 152}, {"molecule": "CC(C)(C(=O)Nc1nncs1)C(c1ccccc1)c1ccc(N2CCOCC2)nc1", "note": "(single isomer, unassigned) [Example 22, 2,2-Dimethyl-3-(6-(4-morpholinyl)-3-pyridinyl)-3-phenyl-N-1,3,4-thiadiazol-2-ylpropanamide]", "percent relative binding activity vs dexamethasone at 10 µM": 477}, {"molecule": "CC(C)(C(=O)Nc1nncs1)C(c1cccc(F)c1)c1ccc(Br)s1", "note": "(centres unmarked) [Example 1, 3-(5-Bromo-2-thienyl)-3-(3-fluorophenyl)-2,2-dimethyl-N-1,3,4-thiadiazol-2-ylpropanamide]", "percent relative binding activity vs dexamethasone at 10 µM": 6.4}, {"molecule": "CC(C)(C(=O)Nc1nccs1)C(c1cccc(F)c1)c1ccc(Br)s1", "note": "(centres unmarked) [Example 2, 3-(5-bromo-2-thienyl)-3-(3-fluorophenyl)-2,2-dimethyl-N-1,3-thiazol-2-ylpropanamide]", "percent relative binding activity vs dexamethasone at 10 µM": 10.1}, {"molecule": "CC(C)(C(=O)Nc1nncs1)C(c1ccccc1)c1ccncc1", "note": "(centres unmarked) [Example 6, 2,2-dimethyl-3-phenyl-3-(4-pyridinyl)-N-1,3,4-thiadiazol-2-ylpropanamide]", "percent relative binding activity vs dexamethasone at 10 µM": 502}, {"molecule": "CC(C)(C(=O)Nc1nccs1)C(c1ccccc1)c1ccncc1", "note": "(centres unmarked) [Example 7, 2,2-dimethyl-3-phenyl-3-(4-pyridinyl)-N-1,3-thiazol-2-ylpropanamide]", "percent relative binding activity vs dexamethasone at 10 µM": 161}, {"molecule": "CC(C)(C(=O)Nc1nncs1)C(c1cccc(F)c1)c1ccc(N2CCOCC2)s1", "note": "(centres unmarked) [Example 9, 3-(3-fluorophenyl)-2,2-dimethyl-3-(5-(4-morpholinyl)-2-thienyl)-N-1,3,4-thiadiazol-2-ylpropanamide]", "percent relative binding activity vs dexamethasone at 10 µM": 49.7}, {"molecule": "CC(C)(C(=O)Nc1nncs1)C(c1ccc(N2CCOCC2)cc1)c1cccs1", "note": "(centres unmarked) [Example 11, 2,2-dimethyl-3-(4-(4-morpholinyl)phenyl)-N-1,3,4-thiadiazol-2-yl-3-(2-thienyl)propanamide]", "percent relative binding activity vs dexamethasone at 10 µM": 7.4}, {"molecule": "CC(C)(C(=O)Nc1nccs1)C(c1ccc(N2CCOCC2)cc1)c1cccs1", "note": "(centres unmarked) [Example 12, 2,2-dimethyl-3-(4-(4-morpholinyl)phenyl)-N-1,3-thiazol-2-yl-3-(2-thienyl)propanamide]", "percent relative binding activity vs dexamethasone at 10 µM": 6.1}, {"molecule": "CC(C)(C(=O)Nc1nncs1)C(c1ccccc1)c1ccc(N2CCCCC2)nc1", "note": "(centres unmarked) [Example 15, 2,2-dimethyl-3-phenyl-3-(6-(1-piperidinyl)-3-pyridinyl)-N-1,3,4-thiadiazol-2-ylpropanamide]", "percent relative binding activity vs dexamethasone at 10 µM": 14.7}, {"molecule": "CC(C)(C(=O)Nc1nncs1)C(c1ccccc1)c1ccc(N2CCCC2)nc1", "note": "(centres unmarked) [Example 16, 2,2-dimethyl-3-phenyl-3-(6-(1-pyrrolidinyl)-3-pyridinyl)-N-1,3,4-thiadiazol-2-ylpropanamide]", "percent relative binding activity vs dexamethasone at 10 µM": 90.4}, {"molecule": "CC(C)(C(=O)Nc1nncs1)C(c1ccccc1)c1ccc(N2CCC(O)CC2)nc1", "note": "(centres unmarked) [Example 17, 3-(6-(4-hydroxy-1-piperidinyl)-3-pyridinyl)-2,2-dimethyl-3-phenyl-N-1,3,4-thiadiazol-2-ylpropanamide]", "percent relative binding activity vs dexamethasone at 10 µM": 112}, {"molecule": "Cc1ccc(CNc2ccc(C(c3ccccc3)C(C)(C)C(=O)Nc3nccs3)cn2)cc1", "note": "(centres unmarked) [Example 18, 2,2-dimethyl-3-(6-((4-methylbenzyl)amino)-3-pyridinyl)-3-phenyl-N-1,3-thiazol-2-ylpropanamide]", "percent relative binding activity vs dexamethasone at 10 µM": 37.2}, {"molecule": "COc1ccc(-c2ccc(C(c3ccccc3)C(C)(C)C(=O)Nc3nncs3)cn2)cc1", "note": "(centres unmarked) [Example 24, 3-(6-(4-Methoxyphenyl)-3-pyridinyl)-2,2-dimethyl-3-phenyl-N-1,3,4-thiadiazol-2-ylpropanamide]", "percent relative binding activity vs dexamethasone at 10 µM": 16.3}, {"molecule": "CC(C)(C(=O)Nc1nccs1)C(c1ccccc1)c1ccc(-c2ccoc2)nc1", "note": "(centres unmarked) [Example 25, 3-(6-(3-furyl)-3-pyridinyl)-2,2-dimethyl-3-phenyl-N-1,3-thiazol-2-ylpropanamide]", "percent relative binding activity vs dexamethasone at 10 µM": 73.4}, {"molecule": "COc1ncc(C(c2ccccc2)C(C)(C)C(=O)Nc2nncs2)cc1Cl", "note": "(centres unmarked) [Example 27, 3-(5-chloro-6-methoxy-3-pyridinyl)-2,2-dimethyl-3-phenyl-N-1,3,4-thiadiazol-2-ylpropanamide]", "percent relative binding activity vs dexamethasone at 10 µM": 52.8}, {"molecule": "CC(C)(C(=O)Nc1nncs1)C(c1ccccc1)c1cnc(N2CCOCC2)c(Cl)c1", "note": "(centres unmarked) [Example 28, 3-(5-chloro-6-(4-morpholinyl)-3-pyridinyl)-2,2-dimethyl-3-phenyl-N-1,3,4-thiadiazol-2-ylpropanamide]", "percent relative binding activity vs dexamethasone at 10 µM": 187}]}, {"molecular_target": "T2, human glucocorticoid receptor (Homo sapiens, UniProt P04150)", "T2 construct": "purified human recombinant full-length glucocorticoid receptor (2 nM); purchased Invitrogen Part #2893", "T2 sequence (P04150 1-777)": "T1 sequence (P04150 1-777)", "assay": "Glucocorticoid Receptor Binding Assay (I), fluorescence polarization competitor kit", "conditions": "purified human recombinant full-length GR, Fluormone GS Red", "how_it_was_run": "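Fluorescence polarization competition of purified recombinant full-length human GR (2 nM) with 1 nM Fluormone GS Red, incubated 2 h at room temperature in the dark. Normalized to vehicle (0%) and 5 μM dexamethasone (100%) as % relative binding activity. Compounds tested 8.5E-05 to 5 μM.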", "units": {"Ki": "nM"}, "values": [{"molecule": "CC(C)(C(=O)Nc1nncs1)C(c1cccc(F)c1)c1ccc(N2CCOCC2)s1", "note": "(centres unmarked) [Example 9, 3-(3-fluorophenyl)-2,2-dimethyl-3-(5-(4-morpholinyl)-2-thienyl)-N-1,3,4-thiadiazol-2-ylpropanamide]", "Ki": 24.6}, {"molecule": "C[C@@H](C(=O)Nc1nncs1)[C@@H](c1cccc(F)c1)c1ccc(-c2ccc(C(=O)N(C)C)cc2)s1", "note": "[Example 131, 4-(5-((1S,2R)-1-(3-fluorophenyl)-2-methyl-3-oxo-3-(1,3,4-thiadiazol-2-ylamino)propyl)-2-thienyl)-N,N-dimethylbenzamide]", "Ki": 236}, {"molecule": "C[C@H](C(=O)Nc1nncs1)[C@@H](c1ccccc1)c1ccc(Br)s1", "note": "[Example 133, (2S,3S)-3-(5-bromo-2-thienyl)-2-methyl-3-phenyl-N-1,3,4-thiadiazol-2-ylpropanamide]", "Ki": 4.85}, {"molecule": "C[C@@H](C(=O)Nc1nncs1)[C@H](c1ccccc1)c1ccc(Br)s1", "note": "[Example 136, (2R,3R)-3-(5-bromo-2-thienyl)-2-methyl-3-phenyl-N-1,3,4-thiadiazol-2-ylpropanamide]", "Ki": 1.98}, {"molecule": "C[C@H](C(=O)Nc1nncs1)[C@@H](c1ccccc1)c1ccc(-c2ccc(C(=O)N(C)C)cc2)s1", "note": "[Example 137, N,N-dimethyl-4-(5-((1S,2S)-2-methyl-3-oxo-1-phenyl-3-(1,3,4-thiadiazol-2-ylamino)propyl)-2-thienyl)benzamide]", "Ki": 4.73}, {"molecule": "CCN(C)C(=O)c1ccc(-c2ccc([C@@H](c3cccc(F)c3)[C@@H](C)C(=O)Nc3ncc(C)s3)s2)cc1", "note": "[Example 142, N-ethyl-4-(5-((1R,2R)-1-(3-fluorophenyl)-2-methyl-3-((5-methyl-1,3-thiazol-2-yl)amino)-3-oxopropyl)-2-thienyl)-N-methylbenzamide]", "Ki": 3.2}]}]}
